From patent US11572399B2, “Long-acting GIP peptide analogues” (University of Copenhagen, priority 2017, dated 2023) come the findings set out here.

Where two headings read alike, the source gives them in different places. Peptide text beside a SMILES is read from it. * marks the point of attachment. Lauroyl = CCCCCCCCCCCC(=O)*

Series [1] has as its target T1, human GIP receptor (Homo sapiens, UniProt P48546).
T1 construct: host or cells: COS-7, transient transfection (calcium phosphate), cDNA in pCMV-Script
T1 sequence (P48546 22-466): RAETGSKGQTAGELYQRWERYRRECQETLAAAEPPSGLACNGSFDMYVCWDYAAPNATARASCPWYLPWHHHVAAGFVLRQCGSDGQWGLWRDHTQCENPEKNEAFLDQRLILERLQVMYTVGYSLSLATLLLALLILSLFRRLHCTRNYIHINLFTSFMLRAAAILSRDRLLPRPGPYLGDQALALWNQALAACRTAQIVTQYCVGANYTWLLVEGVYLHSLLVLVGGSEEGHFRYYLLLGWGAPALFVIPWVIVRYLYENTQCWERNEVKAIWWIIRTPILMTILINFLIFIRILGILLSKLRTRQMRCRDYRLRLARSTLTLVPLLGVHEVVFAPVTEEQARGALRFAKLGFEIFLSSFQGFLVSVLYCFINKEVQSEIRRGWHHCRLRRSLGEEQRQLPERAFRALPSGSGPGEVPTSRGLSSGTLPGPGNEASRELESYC
Description: cAMP accumulation assay, agonism (ligand alone). The series is classed as cell-based. The following applies: COS-7 cells, Table 1; for Emax: COS-7, intrinsic cAMP activity. Background: cAMP levels reflect the balance of adenylyl cyclase and phosphodiesterase activity.

Series [2] concerns the target T1, human GIP receptor. Description: 125I-human GIP competition binding assay, in the presence and absence of 2% HSA.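 For all read-outs here: nonspecific binding taken as radioligand bound to untransfected cells, IC50 obtained from nonlinear regression fits.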 Particulars: for Binding fold (paired): fold decrease in affinity compared to GIP(3-30)NH2; for Fold change HSA (2%)/Casein (0.1%): IC50 (plus HSA)/IC50 (minus HSA).
Setting [3] is: heterologous competition binding, transiently transfected COS-7 cells expressing the human GIP receptor, read-out: Binding.
The mark [4] stands for this setting: binding in 0.1% casein (absence of HSA), log value, read-out: logIC50 0.1% casein (converted).

As for `CCCCCCCCCCCCCC(=O)N[C@@H](CCC(=O)O)C(=O)NCC(=O)N[C@H](C(=O)N[C@@H](Cc1ccccc1)C(=O)N[C@H](C(=O)N[C@@H](CO)C(=O)N[C@@H](CC(=O)O)C(=O)N[C@@H](Cc1ccc(O)cc1)C(=O)N[C@@H](CO)C(=O)N[C@H](C(=O)N[C@@H](C)C(=O)N[C@@H](CCSC)C(=O)N[C@@H](CC(=O)O)C(=O)N[C@@H](CCCCN)C(=O)N[C@H](C(=O)N[C@@H](Cc1c[nH]cn1)C(=O)N[C@@H](CCC(N)=O)C(=O)N[C@@H](CCC(N)=O)C(=O)N[C@@H](CC(=O)O)C(=O)N[C@@H](Cc1ccccc1)C(=O)N[C@H](C(=O)N[C@@H](CC(N)=O)C(=O)N[C@@H](Cc1c[nH]c2ccccc12)C(=O)N[C@@H](CC(C)C)C(=O)N[C@@H](CC(C)C)C(=O)N[C@@H](C)C(=O)N[C@@H](CCC(N)=O)C(=O)N[C@@H](CCCCN)C(N)=O)C(C)C)[C@@H](C)CC)[C@@H](C)CC)[C@@H](C)CC)[C@@H](C)O` [AT110, [hGIP(3-30)NH2—C14/3]], the Emax – broadly, the size of the effect at its maximum, as opposed to the concentration needed – in series [1] amounted to 64%. The “Binding fold (paired)” value in series [2] (Table 3b) is 5.2 fold.
As for `CCCCCCCCCCCCCCCCCC(=O)N[C@@H](CCC(=O)O)C(=O)NCC(=O)N[C@H](C(=O)N[C@@H](Cc1ccccc1)C(=O)N[C@H](C(=O)N[C@@H](CO)C(=O)N[C@@H](CC(=O)O)C(=O)N[C@@H](Cc1ccc(O)cc1)C(=O)N[C@@H](CO)C(=O)N[C@H](C(=O)N[C@@H](C)C(=O)N[C@@H](CCSC)C(=O)N[C@@H](CC(=O)O)C(=O)N[C@@H](CCCCN)C(=O)N[C@H](C(=O)N[C@@H](Cc1c[nH]cn1)C(=O)N[C@@H](CCC(N)=O)C(=O)N[C@@H](CCC(N)=O)C(=O)N[C@@H](CC(=O)O)C(=O)N[C@@H](Cc1ccccc1)C(=O)N[C@H](C(=O)N[C@@H](CC(N)=O)C(=O)N[C@@H](Cc1c[nH]c2ccccc12)C(=O)N[C@@H](CC(C)C)C(=O)N[C@@H](CC(C)C)C(=O)N[C@@H](C)C(=O)N[C@@H](CCC(N)=O)C(=O)N[C@@H](CCCCN)C(N)=O)C(C)C)[C@@H](C)CC)[C@@H](C)CC)[C@@H](C)CC)[C@@H](C)O` [AT113, [hGIP(3-30)NH2—C18/3]], the Emax in series [1] was 77%. In addition, the EC50 (in general, the concentration at which the effect is half-maximal) in series [1] (read-out: cAMP agonism nM (EC50)) amounted to 9.9 nM. Also, the IC50 in series [2] (Table 3b, initial data, read-out: Binding IC50) was determined as 41400 nM; in series [2] (setting [3]) it was 41400 nM. Further, the “Binding fold (paired)” value in series [2] (Table 3b) was 16380 fold.
In series [1], `CCCCCCCCCCCC(=O)NCCCC[C@H](NC(=O)[C@@H](NC(=O)[C@H](CCCCN)NC(=O)[C@H](CC(=O)O)NC(=O)[C@H](CCSC)NC(=O)[C@H](C)NC(=O)[C@@H](NC(=O)[C@H](CO)NC(=O)[C@H](Cc1ccc(O)cc1)NC(=O)[C@H](CC(=O)O)NC(=O)[C@H](CO)NC(=O)[C@@H](NC(=O)[C@H](Cc1ccccc1)NC(=O)[C@@H](NC(=O)CNC(=O)[C@@H](N)CCC(=O)O)[C@@H](C)O)[C@@H](C)CC)[C@@H](C)CC)[C@@H](C)CC)C(=O)N[C@@H](CCC(N)=O)C(=O)N[C@@H](CCC(N)=O)C(=O)N[C@@H](CC(=O)O)C(=O)N[C@@H](Cc1ccccc1)C(=O)N[C@H](C(=O)N[C@@H](CC(N)=O)C(=O)N[C@@H](Cc1c[nH]c2ccccc12)C(=O)N[C@@H](CC(C)C)C(=O)N[C@@H](CC(C)C)C(=O)N[C@@H](C)C(=O)N[C@@H](CCC(N)=O)C(=O)N[C@@H](CCCCN)C(N)=O)C(C)C` [AT116, [hGIP(3-30)NH2—C12/18]] (H-EGTFISDYSIAMDKIK(Lauroyl)QQDFVNWLLAQK-NH2; N-terminus assumed) showed an Emax of 0%. Also, the “Fold change in affinity, IC50 (plus HSA)/IC50 (minus HSA)” value in series [2] (presence vs absence of 2% HSA, proxy for albumin binding) stood at 5.2 fold.
Molecule `CCCCCCCCCCCCCC(=O)NCCCC[C@H](NC(=O)[C@H](CC(=O)O)NC(=O)[C@H](CCSC)NC(=O)[C@H](C)NC(=O)[C@@H](NC(=O)[C@H](CO)NC(=O)[C@H](Cc1ccc(O)cc1)NC(=O)[C@H](CC(=O)O)NC(=O)[C@H](CO)NC(=O)[C@@H](NC(=O)[C@H](Cc1ccccc1)NC(=O)[C@@H](N)[C@@H](C)O)[C@@H](C)CC)[C@@H](C)CC)C(=O)N[C@H](C(=O)N[C@@H](Cc1c[nH]cn1)C(=O)N[C@@H](CCC(N)=O)C(=O)N[C@@H](CCC(N)=O)C(=O)N[C@@H](CC(=O)O)C(=O)N[C@@H](Cc1ccccc1)C(=O)N[C@H](C(=O)N[C@@H](CC(N)=O)C(=O)N[C@@H](Cc1c[nH]c2ccccc12)C(=O)N[C@@H](CC(C)C)C(=O)N[C@@H](CC(C)C)C(=O)N[C@@H](C)C(=O)N[C@@H](CCC(N)=O)C(=O)N[C@@H](CCCCN)C(N)=O)C(C)C)[C@@H](C)CC` [AT122, [hGIP(5-30)NH2—C14/16]] displayed an Emax in series [1] of 0%. Further, the “Fold change HSA (2%)/Casein (0.1%)” value in series [2] was 4.9. Besides, the IC50 in series [2] (setting [4]) is 1260 nM.
Turning to `CCCCCCCCCCCCCCCC(=O)N[C@H](C(=O)N[C@@H](Cc1ccccc1)C(=O)N[C@H](C(=O)N[C@@H](CO)C(=O)N[C@@H](CC(=O)O)C(=O)N[C@@H](Cc1ccc(O)cc1)C(=O)N[C@@H](CO)C(=O)N[C@H](C(=O)N[C@@H](C)C(=O)N[C@@H](CCSC)C(=O)N[C@@H](CC(=O)O)C(=O)N[C@@H](CCCCN)C(=O)N[C@H](C(=O)N[C@@H](Cc1c[nH]cn1)C(=O)N[C@@H](CCC(N)=O)C(=O)N[C@@H](CCC(N)=O)C(=O)N[C@@H](CC(=O)O)C(=O)N[C@@H](Cc1ccccc1)C(=O)N[C@H](C(=O)N[C@@H](CC(N)=O)C(=O)N[C@@H](Cc1c[nH]c2ccccc12)C(=O)N[C@@H](CC(C)C)C(=O)N[C@@H](CC(C)C)C(=O)N[C@@H](C)C(=O)N[C@@H](CCC(N)=O)C(=O)N[C@@H](CCCCN)C(N)=O)C(C)C)[C@@H](C)CC)[C@@H](C)CC)[C@@H](C)CC)[C@@H](C)O` [AT124, [hGIP(5-30)NH2—C16/5]], the Emax in series [1] was found to be 0%. In addition, the “Fold change HSA (2%)/Casein (0.1%)” value in series [2] amounted to 5.2. For the same molecule, the IC50 in series [2] (setting [4]) was 1580 nM.
The molecule `CCCCCCCCCCCCCCCCCC(=O)N[C@H](C(=O)N[C@@H](Cc1ccccc1)C(=O)N[C@H](C(=O)N[C@@H](CO)C(=O)N[C@@H](CC(=O)O)C(=O)N[C@@H](Cc1ccc(O)cc1)C(=O)N[C@@H](CO)C(=O)N[C@H](C(=O)N[C@@H](C)C(=O)N[C@@H](CCSC)C(=O)N[C@@H](CC(=O)O)C(=O)N[C@@H](CCCCN)C(=O)N[C@H](C(=O)N[C@@H](Cc1c[nH]cn1)C(=O)N[C@@H](CCC(N)=O)C(=O)N[C@@H](CCC(N)=O)C(=O)N[C@@H](CC(=O)O)C(=O)N[C@@H](Cc1ccccc1)C(=O)N[C@H](C(=O)N[C@@H](CC(N)=O)C(=O)N[C@@H](Cc1c[nH]c2ccccc12)C(=O)N[C@@H](CC(C)C)C(=O)N[C@@H](CC(C)C)C(=O)N[C@@H](C)C(=O)N[C@@H](CCC(N)=O)C(=O)N[C@@H](CCCCN)C(N)=O)C(C)C)[C@@H](C)CC)[C@@H](C)CC)[C@@H](C)CC)[C@@H](C)O` [AT127, [hGIP(5-30)NH2—C18/5]] gave an Emax in series [1] of 0%. Moreover, the “Fold change HSA (2%)/Casein (0.1%)” value in series [2] is given as 0.0. Further, the IC50 in series [2] (setting [4]) was 1580 nM.
On to `CCCCCCCCCCCCCCCCCC(=O)NCCCC[C@H](NC(=O)[C@H](CCC(N)=O)NC(=O)[C@H](C)NC(=O)[C@H](CC(C)C)NC(=O)[C@H](CC(C)C)NC(=O)[C@H](Cc1c[nH]c2ccccc12)NC(=O)[C@H](CC(N)=O)NC(=O)[C@@H](NC(=O)[C@H](Cc1ccccc1)NC(=O)[C@H](CC(=O)O)NC(=O)[C@H](CCC(N)=O)NC(=O)[C@H](CCC(N)=O)NC(=O)[C@H](Cc1c[nH]cn1)NC(=O)[C@@H](NC(=O)[C@H](CCCCN)NC(=O)[C@H](CC(=O)O)NC(=O)[C@H](CCSC)NC(=O)[C@H](C)NC(=O)[C@@H](NC(=O)[C@H](CO)NC(=O)[C@H](Cc1ccc(O)cc1)NC(=O)[C@H](CC(=O)O)NC(=O)[C@H](CO)NC(=O)[C@@H](NC(=O)[C@H](Cc1ccccc1)NC(=O)[C@@H](N)[C@@H](C)O)[C@@H](C)CC)[C@@H](C)CC)[C@@H](C)CC)C(C)C)C(N)=O` [AT129, [hGIP(5-30)NH2—C18/30]], for which the Emax in series [1] was 0%. Also, the IC50 in series [2] (heterologous competition binding, transiently transfected COS-7 cells expressing the human GIP receptor, log value of the nM column, read-out: Binding log (converted)) was 126000 nM.
In series [1], `CC[C@H](C)[C@H](NC(=O)[C@H](CO)NC(=O)[C@H](Cc1ccc(O)cc1)NC(=O)[C@H](CC(=O)O)NC(=O)[C@H](CO)NC(=O)[C@@H](NC(=O)[C@H](Cc1ccccc1)NC(=O)[C@@H](N)[C@@H](C)O)[C@@H](C)CC)C(=O)N[C@@H](C)C(=O)N[C@@H](CCSC)C(=O)N[C@@H](CC(=O)O)C(=O)N[C@@H](CCCCNC(=O)CCCCCCCCCCCCC(=O)O)C(=O)N[C@H](C(=O)N[C@@H](Cc1c[nH]cn1)C(=O)N[C@@H](CCC(N)=O)C(=O)N[C@@H](CCC(N)=O)C(=O)N[C@@H](CC(=O)O)C(=O)N[C@@H](Cc1ccccc1)C(=O)N[C@H](C(=O)N[C@@H](CC(N)=O)C(=O)N[C@@H](Cc1c[nH]c2ccccc12)C(=O)N[C@@H](CC(C)C)C(=O)N[C@@H](CC(C)C)C(=O)N[C@@H](C)C(=O)N[C@@H](CCC(N)=O)C(=O)N[C@@H](CCCCN)C(N)=O)C(C)C)[C@@H](C)CC` [AT139, [hGIP(5-30)NH2—C14diacid/16]] displayed an Emax of 0%. The “Fold change HSA (2%)/Casein (0.1%)” value in series [2] came to 2.6. For the same molecule, the values for the IC50 in series [2] (setting [4]) and in series [2] (setting [3]) were 158 nM and 153 nM, respectively.
